According to patent US11566168B1, “Biocide blend for treating wellbores” (Halliburton Energy Services, Inc., priority 2021, dated 2023):

Legend:
[1] = Properties that a biocide or blend possesses (Table 1)
From the text: Some of the desirable properties can include maintaining biocidal activity in fluids having a high salinity or a high concentration of total dissolved solids, thermal stability, maintaining biocidal activity in the presence of ammonia or primary amines, quick kill, maintaining biocidal activity for extended periods of time—also known as persistence, and no interaction between the biocide and other additives having a negative charge (anions) within a treatment fluid.
The second property can be different. […] It is to be understood that unlike a triazine compound, glutaraldehyde is not a formaldehyde-releasing biocide.

[2] = test system: sulfate reducing bacteria (SRB); test: Elevated temperature study of biocides, kill testing of SRB; assay type: cell-based, indigenous sulfate reducing bacteria; settings: for biocidal effectiveness against SRB (FIG. 1): biocide-dosed water at 93° C. for 1 week, then 5 days at 32° C. with bacteria
Experimental: (§1) To facilitate a better understanding of the various embodiments, the following examples are given. […] Kill testing was performed at 32° C. (89.6° F.) at various contact times as follows. Bacterial populations were augmented prior to testing by culturing indigenous acid producing bacteria (APB) and sulfate reducing bacteria (SRB) in sample waters before starting kill studies. Prior to testing, cultures of APB and SRB from water samples were grown in culture medium. APB were grown in anaerobic phenol red dextrose medium (PRD). SRB were grown in American Petroleum Institute (API) medium without iron. The total dissolved solids (TDS) of SRB and APB media were selected to simulate wellbore fluids for some of the testing. Immediately preceding biocide testing, cultures were harvested by centrifugation. Cell pellets from mature bacteria were resuspended in sample water. The sample water, augmented with bacteria, was dispensed into 60 mL glass bottles and the appropriate amount of biocide was added. At the stated contact time of either 4 hours or 24 hours, biocide samples were taken for quantification. A standard serial dilution method into culture media was used to test biocide efficacy. Controls were serial diluted to theoretical extinction, while biocide-dosed samples were carried through 6 ten-fold dilutions as represented on the Y-axis of the figures. APB were quantitated by serial dilution into PRD medium. SRB were quantified by serial dilution into modified Postgate's medium B (MBP). Culture media were incubated at 32° C. (89.6° F.) and checked periodically. A change from red to yellow indicated a positive APB bottle. Formation of a black precipitate indicated a positive SRB bottle.
(§2) Elevated temperature studies of the biocides as shown in FIGS. 1 and 2 were conducted by adding 2 times the final biocide test concentration to 100 mL of sample water. The biocide-dosed sample was placed at 93° C. (199.4° F.) for 1 week or 2 weeks, FIG. 1 and FIG. 2, respectively. Following exposure to the elevated temperature, the heat-exposed biocide-dosed material was combined with an equal amount of sample water augmented with APB or SRB bacteria. The sample was then incubated for 5 days at 32° C. (89.6° F.). Following incubation, the sample material was serial diluted into PRD and MPB media for APB and SRB quantitation as discussed above. The biocides for FIGS. 1 and 2 are formaldehyde-releasing biocides. Tris(hydroxymethyl)nitromethane (“THNM”) and 4,4-dimethyloxazolidine (“DMO”) were obtained from DuPont®. Triazine was 1,3,5-triazine that is widely available commercially. Paraformaldehyde and […] (ratio 3:2) (“MBO”) was obtained from Vink chemicals. The formaldehyde-releasing biocides were in a concentration of 100, 150, 500, or 1,000 parts per million (“ppm”).

[3] = test system: acid producing bacteria (APB); test: Elevated temperature study of biocides, kill testing of APB; assay type: cell-based, indigenous acid producing bacteria; settings: for biocidal effectiveness against APB (FIG. 1): biocide-dosed water at 93° C. for 1 week, then 5 days at 32° C. with bacteria
Experimental: as §1, §2

[4] = at comparable or lower concentrations, 93° C. for 1 week
[5] = triazine at 100 ppm, 93° C. for 1 week

Molecule	Activity in ammonia [1]	High salinity activity [1]	No interaction with anions [1]	Quick kill [1]	Thermal stability [1]	performance compared with the other formaldehyde-releasing biocides, SRB (FIG. 2) ([2]; 150 ppm, 93° C. for 2 weeks)	effectiveness compared with the other formaldehyde-releasing biocides, SRB (FIG. 1) [2, 4]	biocidal effectiveness against SRB (FIG. 1) [2]	effectiveness compared with MBO, SRB (FIG. 1) [2, 5]	performance compared with the other formaldehyde-releasing biocides, APB (FIG. 2) ([3]; 150 ppm, 93° C. for 2 weeks)	effectiveness compared with the other formaldehyde-releasing biocides, APB (FIG. 1) [3, 4]	biocidal effectiveness against APB (FIG. 1) [3]	effectiveness compared with MBO, APB (FIG. 1) [3, 5]
1,3,5-triazine	Yes	Yes	Yes	No	Yes	performed better	as effective or more effective	very effective	as effective as MBO at 1,000 ppm	performed better	as effective or more effective	effective	as effective as MBO at 1,000 ppm
CC1(C)COCN1 [DMO, 4,4-dimethyloxazolidine, reference compound]	–	–	–	–	–	–	–	not SRB	–	–	–	effective	–
O=CCCCC=O [Glutaraldehyde, glutaraldehyde, reference compound]	No	Yes	Yes	Yes	No	–	–	–	–	–	–	–	–
